Test results: US9779901B2, “High temperature material compositions for high temperature thermal cutoff devices” (Therm-O-Disc, Incorporated, priority 2008, dated 2017)
Like-named read-outs stand apart in the source and are kept apart here.

Columns and labels:
[1] = 20° C.; cited from earlier work
[2] = estimated melting point temperature ranges of candidate organic compounds (Table 2); some compounds have several values, partly in parentheses, because analytic techniques differ; cited from earlier work

SMILES	Melting Point	Vapor Pressure [1]	Melting Point [2]
OCC(CO)(CO)CO [pentaerythritol, 2,2-Bis(hydroxymethyl)-1,3-propanediol]		<1 mmHG (20° C.)	
O=[N+]([O-])c1cccc2nc[nH]c12 [Example 12]	242 °C		242° ° C.
CN(C)c1ccc(C(C)(C)C)cc1 [Example 82]	250 to 253 °C		250-253° ° C.
O=C1C=Cc2c(ccc3c2ccc2ccccc23)C1=O [Example 142]	260 to 261 °C		260-261° ° C.
Nc1cccc2c1C(=O)c1c(N)cccc1C2=O [Example 198]	265 °C		265° ° C.
CC1(C)CNC(=O)NC1 [Example 107]	255 to 257 °C		255-257° ° C.
CC1(C)CC2(CC(C)(C)NC(=O)N2)NC(=O)N1 [Example 190]	265 to 268 °C		265-268° ° C.
c1nc2nc3nc[nH]cc3n2n1 [Example 77]	250 °C		250° ° C.

The next lines start with results.

Melting Point	SMILES	Vapor Pressure [1]	Melting Point [2]
244 to 245 °C	O=Cc1c2ccccc2c(C=O)c2ccccc12 [Example 37]		244-245° ° C.
254 °C	Oc1ccc2cc3ccccc3cc2c1 [Example 103]		254° ° C.
247 to 249 °C	CCNC(=O)c1cc2c(cn1)[nH]c1ccccc12 [Example 61]		247-249° ° C.
262 to 262.5 °C	O=C(O)c1cccc2c1-c1ccc([N+](=O)[O-])cc1C2=O [Example 163]		262-262.5° ° C.
258 to 260 °C	CC(=O)Nc1cnn2c(C)nc3ccccc3c12 [Example 125]		258-260° ° C.
265 °C	Nc1ccc2cc([N+](=O)[O-])ccc2n1 [Example 201]		265° ° C.
